Key:
[1] = Storage stability of fesoterodine base as oil and in polymer matrices; assay type: physicochemical; conditions: storage for 6 months at 5° C.
Experimental: While, for example, the free base of fesoterodine is decomposed as an oil after storage for 6 months at 5° C. to around 3-4%, a drop in concentration cannot be established or only established essentially to a lesser extent when fesoterodine is incorporated in matrices, which contain polar components. [table]

[2] = Stirring of fesoterodine base under distilled water, TLC of the aqueous phase; assay type: physicochemical; conditions: covered with distilled water, stirred two days at room temperature
Experimental: Fesoterodine (107.7 mg (R)-2-(3-Diisopropylamino-1-phenylpropyl)-4-hydroxymethylphenyl isobutyric acid ester, B) is covered with a layer distilled water and stirred at room temperature. After two days of stirring, the reaction batch remains unchanged two-phase.

SMILES: CC(C)C(=O)Oc1ccc(CO)cc1[C@H](CCN(C(C)C)C(C)C)c1ccccc1 [free base of fesoterodine, (R)-2-[3-(1,1-diisopropylamino)-1-phenylpropyl]-4-(hydroxymethyl)phenyl isobutyrate]
- Decomposition during storage as an oil [1]: 3-4%
- Organic material detectable in the aqueous phase by thin layer chromatography [2]: No organic material (B or E) could be detected

Reference: patent US7989654B2, “High purity bases of 3,3-diphenylpropylamino monoesters” (UCB Pharma GmbH, priority 2003, dated 2011)
